The values below are quoted from earlier work in PMC3606899 (Journal of molecular medicine (Berlin, Germany), 2012).

For orientation: IC50 means the concentration that gives 50% inhibition.

In the data set the target is PHD2 (Homo sapiens, UniProt Q9GZT9). The data set can be described thus: PHD inhibitor screen, IC50. Type of data set: biochemical.
Chain of PHD2 (Q9GZT9 2-426): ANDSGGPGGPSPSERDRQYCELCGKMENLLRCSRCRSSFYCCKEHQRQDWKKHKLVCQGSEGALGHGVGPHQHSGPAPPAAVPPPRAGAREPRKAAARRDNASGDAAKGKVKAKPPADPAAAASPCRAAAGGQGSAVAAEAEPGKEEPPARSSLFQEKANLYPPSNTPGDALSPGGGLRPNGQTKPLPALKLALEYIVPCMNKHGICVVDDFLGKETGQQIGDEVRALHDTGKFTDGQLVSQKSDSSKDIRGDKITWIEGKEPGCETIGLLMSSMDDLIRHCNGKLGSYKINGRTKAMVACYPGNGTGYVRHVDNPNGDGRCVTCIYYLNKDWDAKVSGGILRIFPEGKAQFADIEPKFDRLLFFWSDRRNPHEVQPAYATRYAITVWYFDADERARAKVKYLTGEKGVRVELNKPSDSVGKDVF

As to AKB-4924, the IC50 was 14 µM.
